Data as given in publication PMC4128710 (Biochemical pharmacology, 2014).
Read-outs that look alike come from different tables or passages of the source.

Assays:
mouse A2BAR [1] = target: T1, mouse A2BAR (Mus musculus, UniProt Q60614); assay: β-Arrestin2 translocation in PathHunter CHO cells
T1 sequence (Q60614 1-332): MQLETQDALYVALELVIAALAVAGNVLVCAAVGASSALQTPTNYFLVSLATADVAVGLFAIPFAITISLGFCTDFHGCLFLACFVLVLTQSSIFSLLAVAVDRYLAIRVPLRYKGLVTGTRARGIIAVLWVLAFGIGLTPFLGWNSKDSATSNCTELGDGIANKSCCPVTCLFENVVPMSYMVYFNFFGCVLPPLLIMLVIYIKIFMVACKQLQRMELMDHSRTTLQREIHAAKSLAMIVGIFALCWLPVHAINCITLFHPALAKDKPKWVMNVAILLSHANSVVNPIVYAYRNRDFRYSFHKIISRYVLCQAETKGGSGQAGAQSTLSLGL

mouse A2BAR [2] = assay: β-Arrestin2 translocation in PathHunter CHO cells
A2BAR [3] = target: T2, A2BAR (Homo sapiens, UniProt P29275); assay: cAMP accumulation in HEK293 cells endogenously expressing the A2BAR
T2 sequence (P29275 1-332): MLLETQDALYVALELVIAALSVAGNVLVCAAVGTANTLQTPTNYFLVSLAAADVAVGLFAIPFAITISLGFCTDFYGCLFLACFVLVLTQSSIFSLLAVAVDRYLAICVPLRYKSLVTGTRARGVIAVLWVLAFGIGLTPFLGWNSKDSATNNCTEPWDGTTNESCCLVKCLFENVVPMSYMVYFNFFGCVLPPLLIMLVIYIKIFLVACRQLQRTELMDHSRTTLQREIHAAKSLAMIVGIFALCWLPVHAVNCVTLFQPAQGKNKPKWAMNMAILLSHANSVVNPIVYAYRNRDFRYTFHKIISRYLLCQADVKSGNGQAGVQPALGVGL

A2BAR [4] = target: T2, A2BAR; assay: cAMP accumulation in T24 cells endogenously expressing the A2BAR
A2BAR [5] = target: T2, A2BAR
A2BAR [6] = target: T2, A2BAR; assay: cAMP accumulation in WM266 melanoma cells endogenously expressing the A2BAR; conditions: WM266, read-out: Max effect cAMP accumulation
A2BAR [7] = target: T2, A2BAR; assay: Intracellular calcium mobilization in HEK293 cells overexpressing the A2BAR
A2BAR [8] = target: T2, A2BAR; assay: Intracellular calcium mobilization in HEK293 cells; conditions: HEK293, read-out: Max effect Calcium (% of effect of NECA)
A2BAR [9] = target: T2, A2BAR; assay: ERK1/2 phosphorylation in T24 cells
A2BAR [10] = target: T2, A2BAR; assay: ERK1/2 phosphorylation in HEK293 cells
A2BAR [11] = assay: cAMP accumulation in COS-7 cells endogenously expressing the A2BAR
A2BAR [12] = target: T2, A2BAR; assay: ERK1/2 phosphorylation in HEK293 cells overexpressing the A2BAR
A2BAR [13] = target: T2, A2BAR; assay: cAMP accumulation in HEK293 cells overexpressing the A2BAR
[14] = test system: MIN-6 mouse pancreatic β cells; assay: Insulin release in MIN6 cells; assay type: cell-based; conditions: MIN-6 cells, 16.7 mM glucose, 1 h
A2BAR [15] = target: T2, A2BAR; assay: cAMP accumulation in 1321N1 astrocytoma cells endogenously expressing the A2BAR
A2BAR [16] = target: T2, A2BAR; assay: Intracellular calcium mobilization in T24 cells; conditions: T-24, read-out: Max effect Calcium (% of effect of NECA)
[17] = HEK293, read-out: Max effect cAMP (% of effect of NECA)
[18] = HEK293, read-out: Max effect ERK1/2 (% of effect of NECA)

## N#Cc1c(N)nc(SCC(N)=O)c(C#N)c1-c1ccc(OCC2CC2)cc1 [BAY, 2-[[6-amino-3,5-dicyano-4-[4-(cyclopropylmethoxy)phenyl]-2-pyridinyl]thio]acetamide]
Mouse A2BAR [1]
  EC50: 5620 ± 1240 nM
  Kd: 12300 nM
Mouse A2BAR [1]; CHO, read-out: Max effect β-arrestin (% of effect of NECA)
  Emax: 26.6 ± 3%
Mouse A2BAR [1]; β-Arrestin pathway
  log (τ/KA): 4.30 ± 0.17
Mouse A2BAR [1]; β-Arrestin pathway, operational model, CHO mouse A2BAR
  τ: 0.25
Mouse A2BAR [1]; β-Arrestin pathway, relative to NECA
  Δlog (τ/Ka): -1.43 ± 0.09
Mouse A2BAR [2]; β-Arrestin versus cAMP reference pathway
  ΔΔlog (τ/KA): 2.16
Mouse A2BAR [2]; β-Arrestin versus cAMP, bias ≫1 disfavors the pathway
  Bias: 145
A2BAR [3]
  EC50: 296 ± 146 nM
A2BAR [3]; [17]
  Emax: 73 ± 12.1%
A2BAR [3]; HEK293 cells, siRNA silencing / overexpression methods
  τ value (operational model), cAMP accumulation: 1.54
A2BAR [4]; EC50 cAMP accumulation, T24 cells, 5 nM A2BAR siRNA
  EC50: 102 ± 17 nM
A2BAR [4]; EC50 cAMP accumulation, T24 cells, 50 nM A2BAR siRNA
  EC50: 127 ± 31 nM
A2BAR [4]; EC50 cAMP accumulation, T24 cells, 500 nM A2BAR siRNA
  EC50: 93 ± 19 nM
A2BAR [4]; EC50 cAMP accumulation, T24 cells, absence of A2BAR siRNA
  EC50: 98 ± 22 nM
A2BAR [4]; EC50 cAMP, T24 cells
  EC50: 43 ± 17.7 nM
A2BAR [4]; T24 cells, 5 nM A2BAR siRNA
  maximum agonist effect, cAMP accumulation (NECA as 100%): 54 ± 4%
A2BAR [4]; T24 cells, 50 nM A2BAR siRNA
  maximum agonist effect, cAMP accumulation (NECA as 100%): 48 ± 6%
A2BAR [4]; T24 cells, 500 nM A2BAR siRNA
  maximum agonist effect, cAMP accumulation (NECA as 100%): 36 ± 3%
A2BAR [4]; T24 cells, absence of A2BAR siRNA
  maximum agonist effect, cAMP accumulation (NECA as 100%): 68 ± 7%
A2BAR [4]; T24 cells, siRNA silencing / overexpression methods
  τ value (operational model), cAMP accumulation: 1.19
A2BAR [4]; T-24, read-out: Max effect cAMP (% of effect of NECA)
  Emax: 62.9 ± 9.6%
A2BAR [5]
  EC50: 45.3 ± 5.9 nM
A2BAR [5]; PC-3, read-out: Max effect cAMP accumulation
  Emax: 72.6 ± 5.1%
A2BAR [6]
  Emax: 9.8 ± 1.7%
A2BAR [7]
  EC50: 1100 ± 390 nM
  Kd: 1670 nM
A2BAR [7]; Calcium pathway
  log (τ/KA): 4.66 ± 0.35
A2BAR [7]; Calcium pathway, operational model, A2BAR-overexpressing HEK293
  τ: 0.08
A2BAR [7]; Calcium versus cAMP reference pathway
  ΔΔlog (τ/KA): 4.22
A2BAR [7]; Calcium versus cAMP, bias ≫1 disfavors the pathway
  Bias: 16600
A2BAR [8]
  Emax: -2.4 ± 1.7%
A2BAR [9]; T24 cells
  ERK1/2 stimulation: did not produce any stimulation
A2BAR [9]; T-24, read-out: Max effect ERK1/2 (% of effect of NECA)
  Emax: -9.4 ± 3.8%
A2BAR [10]
  EC50: 68.8 ± 4.7 nM
A2BAR [10]; [18]
  Emax: 38.3 ± 5.9%
A2BAR [11]; NECA = 100
  Max effect cAMP accumulation: 98.3±3.7%
A2BAR [11]; read-out: EC50 cAMP accumulation
  EC50: 7.9 ± 1.2 nM
A2BAR [12]
  EC50: 28.9 ± 4.1 nM
  Kd: 59.5 nM
A2BAR [12]; ERK1/2 pathway
  log (τ/KA): 7.02 ± 0.44
A2BAR [12]; ERK1/2 pathway, operational model, A2BAR-overexpressing HEK293
  τ: 0.62
A2BAR [12]; ERK1/2 pathway, relative to NECA
  Δlog (τ/Ka): 1.39 ± 0.17
A2BAR [12]; ERK1/2 versus cAMP reference pathway
  ΔΔlog (τ/KA): -0.66
A2BAR [12]; ERK1/2 versus cAMP, bias ≫1 disfavors the pathway
  Bias: 0.22
A2BAR [12]; [18]
  Emax: 38.4 ± 3.3%
A2BAR [13]
  EC50: 6.14 ± 1.61 nM
  Kd: 705 nM
A2BAR [13]; [17]
  Emax: 102 ± 1%
A2BAR [13]; cAMP pathway
  log (τ/KA): 8.15 ± 0.38
A2BAR [13]; cAMP pathway, operational model, A2BAR-overexpressing HEK293
  τ: 100
A2BAR [13]; cAMP pathway, relative to NECA
  Δlog (τ/Ka): 0.73 ± 0.04
[14]
  Glucose stimulated insulin secretion: induced insulin secretion
A2BAR [15]
  EC50: 113 ± 17 nM
A2BAR [15]; 1321-N1, read-out: Max effect cAMP accumulation
  Emax: 52.6 ± 3.1%
A2BAR [16]
  Emax: 2.3 ± 1.5%
